One may read the IC50 as the point on the concentration scale where inhibition reaches its midpoint. A low value points to inhibition by little substance.

Read-outs that look alike come from different tables or passages of the source.

Assay [1] addresses T1, human-derived monoamine oxidase B (Homo sapiens, UniProt P27338).
T1 sequence (P27338 1-520): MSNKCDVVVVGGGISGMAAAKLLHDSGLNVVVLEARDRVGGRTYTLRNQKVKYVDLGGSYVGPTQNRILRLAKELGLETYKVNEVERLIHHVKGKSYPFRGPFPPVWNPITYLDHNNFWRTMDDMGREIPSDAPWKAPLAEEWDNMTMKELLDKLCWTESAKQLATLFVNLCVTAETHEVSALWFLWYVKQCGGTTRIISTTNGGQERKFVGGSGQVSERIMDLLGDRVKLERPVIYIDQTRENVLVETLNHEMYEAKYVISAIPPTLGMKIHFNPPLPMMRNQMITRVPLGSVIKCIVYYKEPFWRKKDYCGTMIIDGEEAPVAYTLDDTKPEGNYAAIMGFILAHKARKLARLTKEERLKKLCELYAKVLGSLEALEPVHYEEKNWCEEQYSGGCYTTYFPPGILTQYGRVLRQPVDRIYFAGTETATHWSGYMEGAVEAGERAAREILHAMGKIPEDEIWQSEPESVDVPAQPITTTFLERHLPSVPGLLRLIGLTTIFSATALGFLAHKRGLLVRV
Nature of the assay: Effect of inhibiting activity of monoamine oxidase B (MAO-B assay). It is filed as biochemical. The following applies: Amplex Red, benzylamine substrate.

A further assay addresses T2, MAO-A (Homo sapiens, UniProt P21397).
T2 sequence (P21397 1-527): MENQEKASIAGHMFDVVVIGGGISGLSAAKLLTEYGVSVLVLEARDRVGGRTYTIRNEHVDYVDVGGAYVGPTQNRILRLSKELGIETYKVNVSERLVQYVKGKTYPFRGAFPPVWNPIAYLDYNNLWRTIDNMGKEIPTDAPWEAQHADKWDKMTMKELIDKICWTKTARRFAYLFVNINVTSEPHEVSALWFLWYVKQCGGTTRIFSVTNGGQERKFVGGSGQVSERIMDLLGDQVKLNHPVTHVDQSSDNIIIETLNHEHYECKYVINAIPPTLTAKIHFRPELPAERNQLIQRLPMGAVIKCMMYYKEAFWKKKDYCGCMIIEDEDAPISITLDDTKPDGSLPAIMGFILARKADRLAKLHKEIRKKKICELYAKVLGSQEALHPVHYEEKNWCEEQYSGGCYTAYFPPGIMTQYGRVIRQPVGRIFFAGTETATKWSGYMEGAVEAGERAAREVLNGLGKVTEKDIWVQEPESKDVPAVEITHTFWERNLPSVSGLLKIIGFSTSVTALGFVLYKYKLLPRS
Description: MAO-A inhibition (Table 1). Type of assay: biochemical.

In assay [2] the test system is APP/PS1 mouse. The following applies: Jo et al., Nature Medicine 2014, cited from earlier work.
Assay [3] has as its system dopaminergic neurons in the substantia nigra and the corpus striatum. Nature of the assay: MPTP mouse model of Parkinson's disease, TH (tyrosine hydroxylase) immunohistochemistry. The following applies: for dopaminergic neuron survivability (TH expression), pre-treatment: from one day before MPTP 20 mg/kg i.p., FIG. 2a. It is filed as in vivo.
Assay [4] concerns DGGCs (dentate gyrus granule cells) of the hippocampus. Description: Inhibition of channel excitability, electrophysiology. Type of assay: cell-based. The note with it: FIG. 4. The text has this:
In order to investigate the channel inhibitory effect, inhibition of channel excitability was investigated electrophysiologically using DGGCs (dentate gyrus granule cells) of the hippocampus.

For assay [5], the target named is T1, human-derived monoamine oxidase B. Nature of the assay: Confirmation of reversible inhibitory effect (washing in centrifugal filter). It is filed as biochemical.
Assay [6] relates to APP/PS1 mouse. Description: APP/PS1 mouse model of Alzheimer's disease, spike probability of dentate gyrus granule cells. The following applies: 2 weeks in drinking water. Type of assay: in vivo.
The test system of the next assay is obesity model mouse. Nature of the assay: HFD (high-fat diet) mouse model of obesity. It is filed as in vivo. Here is the method:
7-week-old mice were divided into 2 groups and were given a normal diet (white, chow) and a high-fat diet (blue, HFD), respectively, for 8 weeks.
The total calorie provided to the normal diet mice and the high-fat diet mice was set to be equal. The average body weight of the normal diet group was measured to be […] at 8 weeks, with about 20% increase from the initial weight of […]. In contrast, the average body weight of the high-fat diet almost doubled to about […].
In addition to the increase in reactive astrocytes, overproduction of γ-aminobutyric acid (GABA) was also detected.

The mark [7] stands for this setting: 10 mg/kg oral, treated from day 3 after MPTP, FIG. 2b.
Setting [8] is: administration for 30 days, FIG. 2c.

Take `C[C@H](NCc1ccc(-c2ccc(OC(F)(F)F)cc2)cc1)C(N)=O` [Example 11, (S)-2-(((4′-trifluoromethoxybiphenyl-4-yl)methyl)amino)propanamide methanesulfonate]: the IC50 in assay [1] is 0.098 µM; on MAO-A, above 100 µM.

Regarding `C[C@H](NCc1ccc(-c2cccc(OC(F)(F)F)c2)cc1)C(N)=O` [Example 10, (S)-2-(((3′-trifluoromethoxybiphenyl-4-yl)methyl)amino)propanamide methanesulfonate], the half-maximal inhibitory concentration (IC50) is 0.216 µM in assay [1] and above 100 µM on MAO-A.

With `COc1cccc(-c2ccc(CN[C@@H](C)C(N)=O)cc2)c1` [Example 12, (S)-2-(((3′-methoxybiphenyl-4-yl)methyl)amino)propanamide methanesulfonate], the results for the IC50 (in assay [1]; against MAO-A) were 3.33 µM and above 100 µM, respectively.

Take `C[C@@H](NCc1ccc(-c2ccc(C(F)(F)F)cc2)cc1)C(N)=O` [Example 15, (R)-2-(((4′-trifluoromethylbiphenyl-4-yl)methyl)amino)propanamide methanesulfonate]: the IC50 against MAO-A was above 100 µM.

For `C[C@H](NCc1ccc(-c2cccc(Cl)c2)cc1)C(N)=O` [Example 5, (S)-2-(((3′-chlorobiphenyl-4-yl)methyl)amino) propanamide methanesulfonate], the results for the IC50 (in assay [1]; against MAO-A) were 0.442 µM and above 100 µM, respectively.

On to `C[C@H](NCc1ccc(-c2ccc(Cl)cc2)cc1)C(N)=O` [Example 6, (S)-2-(((4′-chlorobiphenyl-4-yl)methyl)amino) propanamide methanesulfonate], for which the IC50 was 0.416 µM in assay [1] and above 100 µM at MAO-A.

Take `C#CCN(C)[C@H](C)Cc1ccccc1` [Selegiline]: the “efficacy in the Alzheimer's disease model after 2 weeks” value in the assay with APP/PS1 mouse [2] is “the efficacy decreases greatly”. In the assay on APP/PS1 mouse [2] (after 4 weeks), the “efficacy in the Alzheimer's disease model after 4 weeks” value was “no efficacy is observed”. Moreover, the “efficacy in the Alzheimer's disease model, initially” value in the assay with APP/PS1 mouse [2] (initial) was “excellent efficacy initially”.

Consider `COc1ccc(-c2ccc(CN[C@@H](C)C(N)=O)cc2)cc1` [Example 13, (S)-2-(((4′-methoxybiphenyl-4-yl)methyl)amino)propanamide methanesulfonate], for which the IC50 in assay [1] was 1.06 µM; on MAO-A it was above 100 µM.

In assay [1], `C[C@H](NCc1ccc(-c2ccccc2F)cc1)C(N)=O` [Example 1, (S)-2-(((2′-fluorobiphenyl-4-yl)methyl)amino) propanamide methanesulfonate] gave an IC50 above 10 µM.

Turning to `NC(=O)CNCc1ccc(-c2ccc(C(F)(F)F)cc2)cc1` [Example 16, (R)-2-(((4′-trifluoromethylbiphenyl-4-yl)methyl)amino)acetamide methanesulfonate], the IC50 in assay [1] was 0.126 µM; against MAO-A, above 100 µM.

With `C[C@@H](NCc1ccc(-c2cccc(F)c2)cc1)C(N)=O` [Example 14, methanesulfonate], the IC50 in assay [1] was above 10 µM; on MAO-A, above 100 µM.

For the compound `C[C@H](NCc1ccc(OCc2cccc(F)c2)cc1)C(N)=O` [S-Safinamide, Safinamide, reference compound], the “dopaminergic neuron survivability (TH expression), pre-treatment” value in assay [3] (10 mg/kg oral) is “dopaminergic neuron survivability comparable to that of the control group”. In assay [3] (setting [7]), the “death of dopaminergic neurons, post-treatment” value is “significantly decreased death of the neurons”. Further, in assay [3] (setting [8]), the “protection of dopaminergic neurons in the corpus striatum, 30-day administration” value was “slightly lower efficacy”. In assay [4] (10 μM, read-out: excitability inhibitory effect), the inhibition at 10 µM is around 40%. In addition, the “efficacy in the Alzheimer's disease model after 2 weeks” value with APP/PS1 mouse [2] is reported as “maintains excellent efficacy”.

As for `CC(C)C[C@@H](NCc1ccc(-c2ccc(C(F)(F)F)cc2)cc1)C(N)=O` [Example 18, (R)-4-methyl-2-(((4′-trifluoromethylbiphenyl-4-yl)methyl)amino)pentanamide methanesulfonate], the IC50 is 5.3 µM in assay [1] and above 100 µM against MAO-A.

Consider `CC(C)[C@@H](NCc1ccc(-c2ccc(C(F)(F)F)cc2)cc1)C(N)=O` [Example 17, (R)-3-methyl-2-(((4′-trifluoromethylbiphenyl-4-yl)methyl)amino)butanamide methanesulfonate], for which the IC50 in assay [1] is 4.07 µM; against MAO-A, above 100 µM.

In assay [1], `C[C@H](NCc1ccc(-c2cccc(F)c2)cc1)C(N)=O` [Example 2, (S)-2-(((3′-fluorobiphenyl-4-yl)methyl)amino) propanamide methanesulfonate] gave an IC50 above 10 µM.

For `C[C@H](NCc1ccc(-c2ccc(F)cc2)cc1)C(N)=O` [Example 3, (S)-2-(((4′-fluorobiphenyl-4-yl)methyl)amino) propanamide methanesulfonate], the IC50 in assay [1] is above 10 µM.

Consider `C[C@H](NCc1ccc(-c2ccc(C(F)(F)F)cc2)cc1)C(N)=O` [Example 9, (S)-2-(((4′-trifluoromethylbiphenyl-4-yl)methyl)amino) propanamide methanesulfonate], for which the IC50 against MAO-A is above 500 µM. In assay [5] (1 μM), the Reversibility entry was “Reversible”. Besides, the “Recovered MAO-B activity” value in assay [5] (1 μM, after washing) is recorded as above 85%. Also, the inhibition at 1 µM in assay [5] (after centrifugal filter and washing with buffer (B), read-out: B. MAO-B inhibition effect) is below 15%; in assay [5] (without washing (A), read-out: A. MAO-B inhibition effect), 82%. Besides, the “dopaminergic neuron survivability (TH expression), pre-treatment” value in assay [3] (10 mg/kg oral) is “dopaminergic neuron survivability comparable to that of the control group”. Also, the “death of dopaminergic neurons, post-treatment” value in assay [3] (setting [7]) was “significantly decreased death of the neurons”. In assay [3] (10 mg/kg oral, treated from day 3 after MPTP, substantia nigra, FIG. 2b), the “recovery of dopaminergic neurons in the substantia nigra, post-treatment” value is “recovered the dopaminergic neurons in the substantia nigra to a level comparable to that of the control group not treated with MPTP”. Further, the “protection of dopaminergic neurons in the corpus striatum, 30-day administration” value in assay [3] (setting [8]) is on record as “protected dopaminergic neurons to a level comparable to that of the control group not treated with MPTP”. Further, in assay [3] (administration for 30 days, substantia nigra, FIG. 2c), the “protection of dopaminergic neurons in the substantia nigra, 30-day administration” value is given as “protected neurons similarly to the control group”. In assay [3] (compared with selegiline and safinamide), the “overall efficacy in the three tests on the MPTP mouse model” value is “superior efficacy as compared to selegiline and safinamide”. Besides, the “efficacy (spike probability) compared with safinamide” value in the assay with APP/PS1 mouse [6] is listed as “higher than that of safinamide”. Further, the “spike probability depending on stimulus intensity” value in the assay with APP/PS1 mouse [6] (FIG. 3b) is “superior efficacy was observed”. Moreover, the excitability inhibitory effect entry was “almost no inhibitory effect” in assay [4] (10 μM) and “lower inhibitory effect than safinamide” in assay [4] (50 μM). Also, the “body weight increase due to high-fat diet” value with obesity model mouse (10 mg/kg/day and 100 mg/kg/day groups, FIG. 8) is “inhibited body weight increase due to the intake of the high-fat diet in a concentration-dependent manner”. In addition, the “amount of food intake” value in the assay with obesity model mouse (high-fat diet mice, FIG. 8) is “no difference in the amount of food intake”. Further, the “GFAP (biomarker for reactive astrocytes) in the arcuate nucleus” value with obesity model mouse (high-fat diet mice, FIG. 9) is listed as “Remarkable decrease in GFAP”. Besides, the “overproduction of GABA in the arcuate nucleus” value with obesity model mouse (high-fat diet mice, FIG. 9) is “effective inhibition of the overproduction of GABA”.

Consider `C[C@H](NCc1ccc(-c2ccccc2Cl)cc1)C(N)=O` [Example 4, (S)-2-(((2′-chlorobiphenyl-4-yl)methyl)amino) propanamide methanesulfonate], for which the IC50 in assay [1] was above 10 µM; at MAO-A, above 100 µM.

The record behind these values is US11053190B2, “Alpha-aminoamide derivative compound and pharmaceutical composition comprising same” (NEUROBIOGEN CO., LTD., priority 2014, dated 2021).
